Experimental findings from BindingDB's records for doi:10.1021/jm00185a027 (1981) are described below.

For the assay, the target named is Aldo-keto reductase family 1 member B1 (Oryctolagus cuniculus) (UniProt P15122). Nature of the assay: Binding affinity towards rabbit aldose reductase.

Structures are written as SMILES.

As usually defined, the Ki is the equilibrium dissociation constant of an inhibitor or competing ligand from its target. Read a low Ki as higher affinity. `CN(C)S(=O)(=O)c1ccc2oc3ccc(C(=O)O)cc3c(=O)c2c1` [7-Dimethylsulfamoyl-9-oxo-9H-xanthene-2-carboxylic acid] yielded a Ki of 400 nM.
